The values below come from article PMC4830356 (ACS chemical neuroscience, 2015).

The test system of test [1] is human KOR. The experiment in a line: Bias analysis by fitting to the operational model. Particulars: relative to U69,593; for ΔΔLogR(G−ERK): G protein coupling vs ERK1/2 phosphorylation; for ΔΔLogR(G−ERK) / ΔΔLogR(G−βarr2): ± SEM; for ΔΔLogR(G−βarr2): G protein coupling vs βarrestin2 recruitment; for bias factor (10^ΔΔLogR) G/ERK: antilog of ΔΔLogR(G−ERK); for bias factor (10^ΔΔLogR) G/βarr2: antilog of ΔΔLogR(G−βarr2).

The target in test [2] is T1, human KOR (Homo sapiens, UniProt P41145). The experiment in a line: [35S]GTPγS coupling. It counts as biochemical. A general note: Binding of GTPγS marks nucleotide exchange on a G protein.
For test [3], the target named is T1, human KOR. Nature of the test: In-cell western ERK1/2 phosphorylation in CHO-hKOR cells. It counts as cell-based.
The target of test [4] is T1, human KOR. Nature of the test: βarrestin2 recruitment, high content imaging in U2OS-hKOR-βarr2-GFP cells. It counts as cell-based. In general terms: Activated receptors often draw arrestin, which recruitment assays turn into a signal.

What is called EC50 is the concentration at which the effect is half-maximal. The low end stands for an effect from little substance, the high end for a need for much substance.

T1 sequence (P41145 whole entry): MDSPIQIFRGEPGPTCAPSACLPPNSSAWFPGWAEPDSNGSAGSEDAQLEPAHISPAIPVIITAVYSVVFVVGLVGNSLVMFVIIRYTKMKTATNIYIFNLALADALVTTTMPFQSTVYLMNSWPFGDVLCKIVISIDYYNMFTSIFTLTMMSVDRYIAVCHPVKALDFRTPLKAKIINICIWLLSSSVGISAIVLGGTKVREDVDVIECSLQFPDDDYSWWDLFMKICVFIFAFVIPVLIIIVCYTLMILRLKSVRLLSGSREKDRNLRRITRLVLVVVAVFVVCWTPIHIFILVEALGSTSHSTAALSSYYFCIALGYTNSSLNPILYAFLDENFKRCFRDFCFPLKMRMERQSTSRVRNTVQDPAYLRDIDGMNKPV

In the case of `Brc1ccc(CSc2nnc(-c3ccccn3)n2Cc2ccco2)cc1` [3.1, 2-(5-((4-Bromobenzyl)thio)-4-(furan-2-ylmethyl)-4H-1,2,4-tri-azol-3-yl)pyridine], in the test on human KOR [1], the “ΔΔLogR(G−ERK)” value worked out at 1.7 ± 0.20, the “ΔΔLogR(G−βarr2)” value was 1.2 ± 0.20, the “bias factor (10^ΔΔLogR) G/ERK” value is reported as 47 and the “bias factor (10^ΔΔLogR) G/βarr2” value is given as 17. At human KOR [2], the EC50 came to 84.7 ± 18.4 nM and the “G protein assay EMAX, % of max U69,593” value is reported as 91 ± 3 % of max U69,593. Besides, at human KOR [3], the EC50 was determined as 340 ± 25.1 nM; the “ERK1/2 phosphorylation % U69,593 at 10 μM” value is recorded as 114 ± 4 % U69,593; the “ERK1/2 phosphorylation EMAX, % of max U69,593” value (from here on “ERK1/2 phosphorylation EMAX, %”) was 125 ± 2 % of max U69,593. For the same compound, at human KOR [4], the EC50 was over 31000 nM and the “βarrestin2 assay % U69,593 at 10 μM” value was 58 ± 8 % U69,593.
Take `Ic1ccc(CSc2nnc(-c3ccccn3)n2Cc2ccco2)cc1` [2.1, 2-(5-((4-Iodobenzyl)thio)-4-(furan-2-ylmethyl)-4H-1,2,4-triazol-3-yl)pyridine]: in the test on human KOR [1], the “ΔΔLogR(G−ERK)” value was 1.9 ± 0.19, the “ΔΔLogR(G−βarr2)” value was 1.7 ± 0.19, the “bias factor (10^ΔΔLogR) G/ERK” value amounted to 88 and the “bias factor (10^ΔΔLogR) G/βarr2” value came to 49. Further, on human KOR [2], the EC50 stood at 30.3 ± 4.5 nM and the “G protein assay EMAX, % of max U69,593” value was 95 ± 1 % of max U69,593. For the same compound, at human KOR [3], a half-maximal response (EC50) required 222 ± 22.9 nM; the “ERK1/2 phosphorylation % U69,593 at 10 μM” value is reported as 113 ± 8 % U69,593; the “ERK1/2 phosphorylation EMAX, %” value is 131 ± 10 % of max U69,593. At human KOR [4], the EC50 came out at 13500 ± 8290 nM; the “βarrestin2 assay % U69,593 at 10 μM” value is given as 105 ± 2 % U69,593; the “βarrestin2 assay EMAX, % of max U69,593” value is 228 ± 96 % of max U69,593.
For the compound `FC(F)(F)c1ccc(Cl)c(CSc2nnc(-c3ccccn3)n2Cc2cccnc2)c1` [1.3, 2-(5-((2-Chloro-5-(trifluoromethyl)benzyl)thio)-4-(pyridin-3-ylmethyl)-4H-1,2,4-triazol-3-yl)pyridine], in the test on human KOR [1], the “ΔΔLogR(G−ERK)” value stood at 1.0 ± 0.19, the “ΔΔLogR(G−βarr2)” value amounted to 1.2 ± 0.20, the “bias factor (10^ΔΔLogR) G/ERK” value stood at 9 and the “bias factor (10^ΔΔLogR) G/βarr2” value amounted to 15. At human KOR [2], it took 115 ± 8.9 nM to reach a half-maximal effect (EC50) and the “G protein assay EMAX, % of max U69,593” value was 97 ± 1 % of max U69,593. Further, on human KOR [3], the half-maximal effective concentration (EC50) stood at 108 ± 24.5 nM; the “ERK1/2 phosphorylation % U69,593 at 10 μM” value was 107 ± 7 % U69,593; the “ERK1/2 phosphorylation EMAX, %” value is reported as 114 ± 8 % of max U69,593. At human KOR [4], the midpoint of the response, the EC50, lay at 10100 ± 3250 nM; the “βarrestin2 assay % U69,593 at 10 μM” value is 38 ± 5 % U69,593; the “βarrestin2 assay EMAX, % of max U69,593” value is 65 ± 6 % of max U69,593.
`FC(F)(F)c1ccc(Cl)c(CSc2nnc(-c3ccccn3)n2Cc2ccco2)c1` [1.1, 2-(5-((2-Chloro-5-(trifluoromethyl)benzyl)thio)-4-(furan-2-yl-methyl)-4H-1,2,4-triazol-3-yl)pyridine]: in the test on human KOR [1], the “ΔΔLogR(G−ERK)” value worked out at 2.0 ± 0.19, the “ΔΔLogR(G−βarr2)” value was 1.7 ± 0.19, the “bias factor (10^ΔΔLogR) G/ERK” value is recorded as 93 and the “bias factor (10^ΔΔLogR) G/βarr2” value was 47. In addition, at human KOR [2], the EC50 worked out at 31.8 ± 6.4 nM and the “G protein assay EMAX, % of max U69,593” value is given as 98 ± 1 % of max U69,593. In addition, on human KOR [3], it took 242 ± 46.9 nM to reach a half-maximal effect (EC50); the “ERK1/2 phosphorylation % U69,593 at 10 μM” value is given as 114 ± 7 % U69,593; the “ERK1/2 phosphorylation EMAX, %” value is recorded as 120 ± 10 % of max U69,593. For the same compound, on human KOR [4], a half-maximal response (EC50) required 8720 ± 2180 nM; the “βarrestin2 assay % U69,593 at 10 μM” value was 29 ± 5 % U69,593; the “βarrestin2 assay EMAX, % of max U69,593” value was 56 ± 5 % of max U69,593.
Regarding `Ic1ccc(CSc2nnc(-c3ccccn3)n2Cc2cccs2)cc1` [2.2, 2-(5-((4-Iodobenzyl)thio)-4-(thiophen-2-ylmethyl)-4H-1,2,4-triazol-3-yl)pyridine], in the test on human KOR [1], the “ΔΔLogR(G−ERK)” value stood at 2.5 ± 0.19, the “ΔΔLogR(G−βarr2)” value is 1.5 ± 0.19, the “bias factor (10^ΔΔLogR) G/ERK” value was 304 and the “bias factor (10^ΔΔLogR) G/βarr2” value came to 33. Further, on human KOR [2], the midpoint of the response, the EC50, lay at 40.3 ± 8.5 nM and the “G protein assay EMAX, % of max U69,593” value was 100 ± 1 % of max U69,593. At human KOR [3], the EC50 came to 789 ± 159 nM; the “ERK1/2 phosphorylation % U69,593 at 10 μM” value was 131 ± 4 % U69,593; the “ERK1/2 phosphorylation EMAX, %” value is 143 ± 4 % of max U69,593. Also, on human KOR [4], the half-maximal effective concentration (EC50) was 3570 ± 680 nM; the “βarrestin2 assay % U69,593 at 10 μM” value is 94 ± 9 % U69,593; the “βarrestin2 assay EMAX, % of max U69,593” value is 123 ± 19 % of max U69,593.
Consider `Brc1ccc(CSc2nnc(-c3ccccn3)n2Cc2cccnc2)cc1` [3.3, 2-(5-((4-Bromobenzyl)thio)-4-(pyridin-3-ylmethyl)-4H-1,2,4-triazol-3-yl)pyridine], for which, in the test on human KOR [1], the “ΔΔLogR(G−ERK)” value is on record as 1.1 ± 0.19, the “ΔΔLogR(G−βarr2)” value is on record as 1.6 ± 0.22, the “bias factor (10^ΔΔLogR) G/ERK” value was 14 and the “bias factor (10^ΔΔLogR) G/βarr2” value came out at 37. In addition, at human KOR [2], the concentration giving a half-maximal response (EC50) stood at 149 ± 11.5 nM and the “G protein assay EMAX, % of max U69,593” value is on record as 94 ± 4 % of max U69,593. In addition, at human KOR [3], a half-maximal effect (EC50) was put at 227 ± 40.1 nM; the “ERK1/2 phosphorylation % U69,593 at 10 μM” value was 112 ± 6 % U69,593; the “ERK1/2 phosphorylation EMAX, %” value is 117 ± 7 % of max U69,593. Further, at human KOR [4], the EC50 was over 31000 nM and the “βarrestin2 assay % U69,593 at 10 μM” value is on record as 10 ± 7 % U69,593.
For the compound `Ic1ccc(CSc2nnc(-c3ccccn3)n2Cc2cccnc2)cc1` [2.3, 2-(5-((4-Iodobenzyl)thio)-4-(pyridin-3-ylmethyl)-4H-1,2,4-tri-azol-3-yl)pyridine], in the test on human KOR [1], the “ΔΔLogR(G−ERK)” value amounted to 1.2 ± 0.22, the “ΔΔLogR(G−βarr2)” value is reported as 1.4 ± 0.22, the “bias factor (10^ΔΔLogR) G/ERK” value is given as 16 and the “bias factor (10^ΔΔLogR) G/βarr2” value worked out at 25. The “G protein assay EMAX, % of max U69,593” value at human KOR [2] is 98 ± 3 % of max U69,593. Further, on human KOR [3], the “ERK1/2 phosphorylation % U69,593 at 10 μM” value is listed as 110 ± 8 % U69,593 and the “ERK1/2 phosphorylation EMAX, %” value is 109 ± 6 % of max U69,593. For the same compound, at human KOR [4], the “βarrestin2 assay % U69,593 at 10 μM” value is recorded as 46 ± 3 % U69,593 and the “βarrestin2 assay EMAX, % of max U69,593” value is given as 101 ± 7 % of max U69,593.
`Brc1ccc(CSc2nnc(-c3ccccn3)n2Cc2cccs2)cc1` [3.2, 2-(5-((4-Bromobenzyl)thio)-4-(thiophen-2-ylmethyl)-4H-1,2,4-triazol-3-yl)pyridine]: in the test on human KOR [1], the “ΔΔLogR(G−ERK)” value came out at 1.7 ± 0.22, the “ΔΔLogR(G−βarr2)” value came to 0.9 ± 0.22, the “bias factor (10^ΔΔLogR) G/ERK” value is listed as 46 and the “bias factor (10^ΔΔLogR) G/βarr2” value is reported as 7. At human KOR [2], the response was half-maximal at 66.6 ± 15.1 nM (EC50) and the “G protein assay EMAX, % of max U69,593” value is listed as 98 ± 1 % of max U69,593. Besides, on human KOR [3], the EC50 came to 672 ± 113 nM; the “ERK1/2 phosphorylation % U69,593 at 10 μM” value is 135 ± 8 % U69,593; the “ERK1/2 phosphorylation EMAX, %” value is listed as 149 ± 13 % of max U69,593. For the same compound, at human KOR [4], the response was half-maximal at 1940 ± 90.9 nM (EC50); the “βarrestin2 assay % U69,593 at 10 μM” value was 87 ± 3 % U69,593; the “βarrestin2 assay EMAX, % of max U69,593” value was 94 ± 2 % of max U69,593.
Turning to `FC(F)(F)c1ccc(Cl)c(CSc2nnc(-c3ccccn3)n2Cc2cccs2)c1` [1.2, 2-(5-((2-Chloro-5-(trifluoromethyl)benzyl)thio)-4-(thiophen-2-ylmethyl)-4H-1,2,4-triazol-3-yl)pyridine], in the test with human KOR [1], the “ΔΔLogR(G−ERK)” value worked out at 2.6 ± 0.19, the “bias factor (10^ΔΔLogR) G/ERK” value was 419 and the “bias factor (10^ΔΔLogR) G/βarr2” value is 122. Besides, at human KOR [2], the EC50 turned out to be 27.2 ± 3.5 nM and the “G protein assay EMAX, % of max U69,593” value is 98 ± 1 % of max U69,593. Also, on human KOR [3], the midpoint of the response, the EC50, lay at 594 ± 115 nM; the “ERK1/2 phosphorylation % U69,593 at 10 μM” value is given as 128 ± 6 % U69,593; the “ERK1/2 phosphorylation EMAX, %” value is given as 139 ± 9 % of max U69,593. Besides, at human KOR [4], the midpoint of the response, the EC50, lay at 6250 ± 1440 nM; the “βarrestin2 assay % U69,593 at 10 μM” value is 94 ± 8 % U69,593; the “βarrestin2 assay EMAX, % of max U69,593” value is on record as 147 ± 25 % of max U69,593.
